In patent publication US10072122B2, “Carbonate polymer containing a functional group of disulfide five-membered ring in the side chain and application thereof” (BrightGene Bio-Medical Technology Co., Ltd, priority 2014, dated 2018):
Where a name gives a salt, the structure may show the parent alone.

Experiments:
[1] = biodistribution in mice bearing human glioma cells; type: in vivo; settings: Balb/C, mouse, tumor, iv, i.v. 10 mg/kg DOX, read-out: accumulation of DOX in tumor
Description: (§1) The mice were sacrificed at 4 h and the tumor and organs of heart, liver, spleen, lung and kidney were collected, wet weighed, then 500 μL 1% triton was added, homogenized and extracted by 900 μL DMF solution (containing 1 mM HCl and 20 mM DTT). Taken the supernatant by centrifugation (20000 rpm, 20 min). The DOX level at each time was determined by fluorescence measurement.

[2] = blood circulation of targeting cross-linked vesicle loaded drug in mice; type: in vivo, Balb/C mice; settings: i.v. 10 mg/kg DOX
Description: The vesicle was formed with different ratio of cRGD-PEG6k-P(CDC4.6k-co-TMC18.6k) and PEG5k-P(CDC4.9k-co-TMC19k). […] Mice were intravenously injected with targeting vesicle loaded drug cRGD20/CLPs, vesicle loaded drug CLPs, targeting decross-linked vesicle cRGD20/PEG-PTMC and DOX.HCl as control (the DOX was 10 mg/kg). 10 μL of blood was taken at different time points of 0, 0.25, 0.5, 1, 2, 4, 8, 12 and 24 h, and the weight of blood was calculated with the method of balance. The blood samples upon withdrawing were immediately dissolved in 100 μL 1% triton and 500 μL of extraction solution DMF (containing 1M HCl and 20 mM DTT). Taken the supernatant by centrifugation (20000 rpm, 20 min). The DOX level in the supernatant of each time was determined by fluorometry.

U87MG human glioma cells = assay: therapeutic efficacy in mice bearing human glioma cells
Description: Aged 4 to 6 weeks old, weight 18 to 20 g Balb/C mice (Shanghai Institutes for Biological Sciences Laboratory Animal Center) were collected. They were evenly divided into groups after weighting. U87MG human glioma cells of 5×10^6 cells were generated by subcutaneous injection into the hind flank of the mice. Mice were intravenously injected with cRGD20/CLPs, CLPs, targeting decross-linked nanoparticle vesicle (cRGD20/PEG-PTMC), DOX.HCl and PBSat 0, 4, 8.12 day when the tumor volume reached 30 to 50 mm^3 about two weeks, where the DOX proportion was 10 mg/kg. The tumor size was measured every two days using calipers from 0 to 18 day. The tumor size was calculated by V=(L*W*H)/2 (L was length of tumor, W was width of tumor, H was thickness of tumor). Continue to observe the survival of mice until 45 day.

B16 melanoma tumor [3] = assay: therapeutic efficacy of iRGD targeting cross-linked vesicles in mice bearing melanoma tumors; type: in vivo, C57BL/6 mice
Description: The tumor size was measured every day using calipers from 0 to 20 day.

B16 melanoma tumor [4] = assay: therapeutic efficacy in mice bearing melanoma tumors; type: in vivo, C57BL/6 mice; settings: DOX 10 mg/kg
B16 melanoma tumor [5] = assay: biodistribution in mice bearing melanoma tumors; type: in vivo, C57BL/6 mice; settings: i.v. 10 mg/kg DOX
Description: as §1, with “Mice were intravenously injected with nanoparticle loaded drug and DOX (DOX was 10 mg/kg) when the tumor volume reached 100-200 mm^3 about two weeks. The mice” for “The mice”, “sacrificed at 6, 12 or 24 h and” for “sacrificed at 4 h and”

[6] = blood circulation of cross-linked nanoparticle loaded drug in mice; type: in vivo, C57BL/6 mice; settings: i.v. 10 mg/kg DOX
Description: Mice were intravenously injected with nanoparticle loaded drug and free drug, and DOX was 10 mg/kg. 10 μL of blood was taken at different time points of 0, 0.25, 0.5, 1, 2, 4, 8, 12 and 24 h, and the weight of blood was calculated with the method of balance. The blood samples upon withdrawing were immediately dissolved in 100 μL 1% triton and 500 μL of extraction solution DMF (containing 1M HCl and 20 mM DTT). Taken the supernatant by centrifugation (20000 rpm, 20 min). The DOX level in the supernatant of each time was determined by fluorometry.

Compound | tissue uptake at 4 h [1] [%ID/g] | DOX in blood ([2]; at 2 h) | half-life ([2]; mouse, whole blood, iv, Balb/C mice, read-out: half-lives of eliminate in mice (converted)) [min] | tumor growth (U87MG human glioma cells; 10 mg/kg DOX at 0, 4, 8, 12 day, 18 day) | declining of body weight (U87MG human glioma cells; 10 mg/kg, at 12 day) [%] | survival rate (U87MG human glioma cells; 13 days) | tumor growth (B16 melanoma tumor [3]; 10 mg/kg DOX.HCl at 0, 3, 6, 9, 12 day, 20 day) | declining of body weight (B16 melanoma tumor [3]; 10 mg/kg, at 8 day) [%] | survival rate (B16 melanoma tumor [3]; 10 days) | tumor growth (B16 melanoma tumor [4]) | survival rate (B16 melanoma tumor [4]; 10 days) | body weight reduced (B16 melanoma tumor [4]; at 7 day) [%] | accumulation in tumor (B16 melanoma tumor [5]; 6 h) [ID %/g] | accumulation in tumor (B16 melanoma tumor [5]; 12 h) [ID %/g] | accumulation in tumor (B16 melanoma tumor [5]; 24 h) [ID %/g] | half-lives of eliminate in mice ([6]; C57BL/6 mice) [h] | DOX in blood ([6]; at 2 h)
COc1cccc2c1C(=O)c1c(O)c3c(c(O)c1C2=O)C[C@@](O)(C(=O)CO)C[C@@H]3O[C@H]1C[C@H](N)[C@H](O)[C@H](C)O1 [DOX.HCl, doxorubicin hydrochloride] | 0.82 | can not detection | 16.2 | can inhibited tumor growth | 21 | 0 | can inhibit tumor growth | 20 | 0 |  |  |  |  |  |  |  | 
COc1cccc2c1C(=O)c1c(O)c3c(c(O)c1C2=O)C[C@@](O)(C(=O)CO)C[C@@H]3O[C@H]1C[C@H](N)[C@H](O)[C@H](C)O1 [DOX, Doxorubicin] |  |  |  |  |  |  |  |  |  | can inhibited tumor growth | 0 | 23 | 1.05 | 0.52 | 0.29 | 0.21 | can not detection
